Broadly, the EC50 is the midpoint of the concentration-response curve.

Each structure is given as a SMILES string.

The subject of this assay is HT-29 cells (colon cancer cells). In words: In vitro assay for protection of HT-29 cells from necroptosis (TNFα/Smac mimetic/Z-VAD-FMK, CCK-8). Type of assay: cell-based. Particulars: Homo sapiens, Protective Activity Against Necroptosis, TNFα/Smac mimetic/Z-VAD-FMK induced, 24 h. An excerpt: Z′=1−3(SDmin+SDmax)/(AVEmax−AVEmin) • wherein: • Min is the positive control Data, and Max is the negative control DMSO Data. • SD is the standard deviation, and AVE is the average. In Vitro Assay for Protection of HT-29 Cells from Necroptosis:
1) Experimental Materials
DMEM medium was purchased from Gibco; penicillin-streptomycin was purchased from Hyclone; TNFα was purchased from Peprotech; Smac mimetic and Z-VAD-FMK were purchased from Selleck; and CCK-8 was purchased from Medchem Express.
HT-29 cells (colon cancer cells) were cultured in DMEM+10% FBS+penicillin/streptomycin. For the experiment, HT-29 cells in the logarithmic phase were collected and seeded into 96-well plates at a specific density (typically 8×10^3 cells/well for adherent cells). The cells were cultured overnight in an incubator at 37° C. with 5% CO2. On the following day, the test compound was diluted with culture medium to the corresponding concentrations and added into the 96-well plate, with 3 replicate wells for each sample. A solvent control group and a blank control group containing only culture medium were set simultaneously. The spiked cells were induced with a combination of TNFα/Smac mimetic/Z-VAD-FMK for 24 h. Subsequently, 10 μL of CCK8 solution was added to each well, and the cells were incubated in an incubator for 1-3 h. Absorbance was measured at […] using a microplate reader, and the cell necrosis protection rate of the drug was calculated using the following formula:
Cell necrosis protection rate=[(X−C0)/(C−C0)]×100% • where C, C0, and X represent the average absorbance values of the solvent control group, the blank control group, and the drug treatment group, respectively. Finally, a cell viability curve was fitted using Graphpad Prism 5.0 software, and the EC50 value of the test compound for inhibiting necroptosis was calculated.

With `C[C@H](NC(=O)c1cn(C)c2ccc(-c3ccn4nc(NC(=O)CN5CC(O)CC5=O)nc4c3)cc12)c1ccc(F)cc1` (stereo in doubt) [Compound 3], the concentration giving a half-maximal response (EC50) lay in the range of 10 to 100 nM.

`CC(=O)Nc1nc2cc(-c3ccc4c(c3)c(C(=O)NC3CCc5cc(F)ccc53)cn4C)ccn2n1` (stereo in doubt) [Compound 127]: the EC50 lay within 1000 to 10000 nM.

Consider `CC(C(=O)Nc1nc2cc(-c3ccc4c(c3)c(C(=O)N[C@@H](C)c3ccc(F)cc3)cn4C)ccn2n1)N1CC[C@H](O)C1` (stereo partly drawn) [Compound 1], for which the concentration giving a half-maximal response (EC50) fell in the range of 10 to 100 nM.

`C[C@H](NC(=O)c1cn(C)c2ccc(-c3ccn4nc(NC(=O)CN5CCC(O)(O)CC5)nc4c3)cc12)c1ccc(F)cc1` [Compound 5]: the EC50 is below 1 nM.

Regarding `C[C@H](NC(=O)c1cn(C)c2ccc(-c3ccn4nc(NC(=O)CN5CCC(O)CC5)nc4c3)cc12)c1ccc(F)cc1` [Compound 6], the EC50 was below 1 nM.

Turning to `C[C@H](NC(=O)c1cn(C)c2ccc(-c3ccn4nc(NC(=O)CN5CCC[C@H](O)C5)nc4c3)cc12)c1ccc(F)cc1` [Compound 7], the EC50 was below 1 nM.

Take `CCn1cc(C(=O)N[C@@H](C)c2ccc(F)cc2)c2cc(-c3ccn4nc(NC(=O)CN5CCOCC5)nc4c3)ccc21` [Compound 8]: the EC50 was below 1 nM.

`C[C@H](NC(=O)c1cn(C)c2ccc(-c3ccn4nc(NC(=O)C(=O)N5CCOCC5)nc4c3)cc12)c1ccc(F)cc1` [Compound 9]: the 50% effective concentration (EC50) was below 1 nM.

As to `CCOC(=O)C(=O)Nc1nc2cc(-c3ccc4c(c3)c(C(=O)N[C@@H](C)c3ccc(F)cc3)cn4C)ccn2n1` [Compound 10], the EC50 lay within 1 to 10 nM.

As to `C[C@H](NC(=O)c1cn(C)c2ccc(-c3ccn4nc(NC(=O)C(N)=O)nc4c3)cc12)c1ccc(F)cc1` [Compound 11], the EC50 lay within 1 to 10 nM.

`C[C@H](NC(=O)c1cn(C)c2ccc(-c3ccn4nc(NC(=O)CN5CC[C@@H](O)C5)nc4c3)cc12)c1ccc(F)cc1` [Compound 12]: the EC50 was below 1 nM.

For `C[C@H](NC(=O)c1cn(C)c2ccc(-c3ccn4nc(NC(=O)CC5CCCCC5)nc4c3)cc12)c1ccc(F)cc1` [Compound 13], the EC50 was below 1 nM.

Take `C[C@H](NC(=O)c1cn(C)c2ccc(-c3ccn4nc(NC(=O)[C@@H]5CCC(=O)N5)nc4c3)cc12)c1ccc(F)cc1` [Compound 14]: the EC50 was below 1 nM.

On to `C[C@H](NC(=O)c1cn(C)c2ccc(-c3ccn4nc(NC(=O)CN5CCOCC5=O)nc4c3)cc12)c1ccc(F)cc1` [Compound 16], for which the EC50 fell in the range of 10 to 100 nM.

Take `CCOC(=O)Nc1nc2cc(-c3ccc4c(c3)c(C(=O)N[C@@H](C)c3ccc(F)cc3)cn4C)ccn2n1` [Compound 17]: the EC50 was below 1 nM.

In the case of `C[C@H](NC(=O)c1cn(C)c2ccc(-c3ccn4nc(NC(=O)CN5CCOC(C)(C)C5)nc4c3)cc12)c1ccc(F)cc1` [Compound 18], the 50% effective concentration (EC50) was below 1 nM.

On to `COC1CCN(CC(=O)Nc2nc3cc(-c4ccc5c(c4)c(C(=O)N[C@@H](C)c4ccc(F)cc4)cn5C)ccn3n2)C1` (stereo partly drawn) [Compound 19], for which the concentration for a half-maximal effect (EC50) was below 1 nM.

For `C[C@H](NC(=O)c1cn(C)c2ccc(-c3ccn4nc(NC(=O)CN5CC[C@@H](F)C5)nc4c3)cc12)c1ccc(F)cc1` [Compound 20], the half-maximal effective concentration (EC50) was below 1 nM.

For `C[C@H](NC(=O)c1cn(C)c2ccc(-c3ccn4nc(NC(=O)CN5CC[C@H](F)C5)nc4c3)cc12)c1ccc(F)cc1` [Compound 21], the EC50 was below 1 nM.

With `C[C@H](NC(=O)c1cn(C)c2ccc(-c3ccn4nc(NC(=O)CN5CCCO5)nc4c3)cc12)c1ccc(F)cc1` [Compound 22], the EC50 is 1 to 10 nM.

Consider `C[C@H](NC(=O)c1cn(C)c2ccc(-c3ccn4nc(NC(=O)CN5CCC(C#N)CC5)nc4c3)cc12)c1ccc(F)cc1` [Compound 23], for which the EC50 is below 1 nM.

For `COC1CCN(CC(=O)Nc2nc3cc(-c4ccc5c(c4)c(C(=O)N[C@@H](C)c4ccc(F)cc4)cn5C)ccn3n2)CC1` [Compound 24], the concentration giving a half-maximal response (EC50) is below 1 nM.

As for `COCCOCCOCC(=O)Nc1nc2cc(-c3ccc4c(c3)c(C(=O)N[C@@H](C)c3ccc(F)cc3)cn4C)ccn2n1` [Compound 25], the EC50 is below 1 nM.

For the molecule `COCCOCCOCCOCC(=O)Nc1nc2cc(-c3ccc4c(c3)c(C(=O)N[C@@H](C)c3ccc(F)cc3)cn4C)ccn2n1` [Compound 26], the EC50 was below 1 nM.

As for `C[C@H](NC(=O)c1cn(C)c2ccc(-c3ccn4nc(NC(=O)CN5CCC6(CC5)OCCO6)nc4c3)cc12)c1ccc(F)cc1` [Compound 27], the EC50 was below 1 nM.

In the case of `C[C@H](NC(=O)c1cn(C)c2ccc(-c3ccn4nc(NC(=O)CN5CCS(=O)(=O)CC5)nc4c3)cc12)c1ccc(F)cc1` [Compound 28], the EC50 lay within 1 to 10 nM.

Consider `C[C@H](NC(=O)c1cn(C)c2ccc(-c3ccn4nc(NC(=O)CN5CC(C)(C#N)C5)nc4c3)cc12)c1ccc(F)cc1` [Compound 29], for which the EC50 was below 1 nM.

As for `C[C@H](NC(=O)c1cn(C)c2ccc(-c3ccn4nc(NC(=O)CN5CCCOCC5)nc4c3)cc12)c1ccc(F)cc1` [Compound 30], the EC50 was below 1 nM.

Take `C[C@H](NC(=O)c1cn(C)c2ccc(-c3ccn4nc(NC(=O)C5(C(=O)O)CC5)nc4c3)cc12)c1ccc(F)cc1` [Compound 31]: the EC50 was in the range of 10 to 100 nM.

Consider `C[C@H](NC(=O)c1cn(C)c2ccc(-c3ccn4nc(NC(=O)CN5CCOCC5C(=O)O)nc4c3)cc12)c1ccc(F)cc1` (stereo partly drawn) [Compound 33], for which the EC50 was 1000 to 10000 nM.

On to `C[C@H](NC(=O)c1cn(C)c2ccc(-c3ccn4nc(NC(=O)CN5CC(C#N)C5)nc4c3)cc12)c1ccc(F)cc1` [Compound 34], for which the EC50 is below 1 nM.

Consider `C[C@H](NC(=O)c1cn(C)c2ccc(-c3ccn4nc(NC(=O)CN5CCOC[C@@H]5CO)nc4c3)cc12)c1ccc(F)cc1` [Compound 35], for which the EC50 is below 1 nM.

`CCN(CC)CC(=O)Nc1nc2cc(-c3ccc4c(c3)c(C(=O)N[C@@H](C)c3ccc(F)cc3)cn4C)ccn2n1` [Compound 36]: the concentration for a half-maximal effect (EC50) was below 1 nM.

For `C[C@H](NC(=O)c1cn(C)c2ccc(-c3ccn4nc(NC(=O)CN5CCC[C@H]5C(=O)O)nc4c3)cc12)c1ccc(F)cc1` [Compound 37], the EC50 was 1 to 10 nM.

On to `C[C@H](NC(=O)c1cn(C)c2ccc(-c3ccn4nc(NC(=O)CN5CCC(N6CCOCC6)CC5)nc4c3)cc12)c1ccc(F)cc1` [Compound 38], for which the EC50 was below 1 nM.

In the case of `C[C@H](NC(=O)c1cn(C)c2ccc(-c3ccn4nc(NC(=O)CN5C[C@H]6C[C@@H]5CO6)nc4c3)cc12)c1ccc(F)cc1` [Compound 39], the half-maximal effective concentration (EC50) was below 1 nM.

For the molecule `C[C@H](NC(=O)c1cn(C)c2ccc(-c3ccn4nc(NC(=O)CN(C)C)nc4c3)cc12)c1ccc(F)cc1` [Compound 40], the concentration giving a half-maximal response (EC50) was below 1 nM.

Take `C[C@H](NC(=O)c1cn(C)c2ccc(-c3ccn4nc(NC(=O)CN5CC[C@H](O)C5)nc4c3)cc12)c1ccc(F)cc1` [Compound 41]: the 50% effective concentration (EC50) was below 1 nM.

Consider `C[C@H](NC(=O)c1cn(C)c2ccc(-c3ccn4nc(NC(=O)CN5CC(F)(F)C5)nc4c3)cc12)c1ccc(F)cc1` [Compound 42], for which the EC50 is below 1 nM.

In the case of `C[C@H](NC(=O)c1cn(C)c2ccc(-c3ccn4nc(NC(=O)CN5CCSCC5)nc4c3)cc12)c1ccc(F)cc1` [Compound 43], the EC50 was below 1 nM.

Regarding `C[C@H](NC(=O)c1cn(C)c2ccc(-c3ccn4nc(NC(=O)CN5CCCC(CO)C5)nc4c3)cc12)c1ccc(F)cc1` (stereo partly drawn) [Compound 44], the concentration for a half-maximal effect (EC50) was 1 to 10 nM.

In the case of `CC1CN(CC(=O)Nc2nc3cc(-c4ccc5c(c4)c(C(=O)N[C@@H](C)c4ccc(F)cc4)cn5C)ccn3n2)CCO1` (stereo partly drawn) [Compound 45], the EC50 is below 1 nM.

As to `C[C@@H]1CN(CC(=O)Nc2nc3cc(-c4ccc5c(c4)c(C(=O)N[C@@H](C)c4ccc(F)cc4)cn5C)ccn3n2)C[C@H](C)O1` [Compound 46], the EC50 is below 1 nM.

For `C[C@H](NC(=O)c1cn(C)c2ccc(-c3ccn4nc(NC(=O)CN5CCC(F)(F)CC5)nc4c3)cc12)c1ccc(F)cc1` [Compound 47], the concentration for a half-maximal effect (EC50) was below 1 nM.

With `C[C@H](NC(=O)c1cn(C)c2ccc(-c3ccn4nc(NC(=O)Cn5ccnc5)nc4c3)cc12)c1ccc(F)cc1` [Compound 48], the concentration for a half-maximal effect (EC50) was in the range of 10 to 100 nM.

Take `C[C@H](NC(=O)c1cn(C)c2ccc(-c3ccn4nc(NC(=O)CN5CCC[C@@H](O)C5)nc4c3)cc12)c1ccc(F)cc1` [Compound 49]: the EC50 was in the range of 1 to 10 nM.

With `C[C@H](NC(=O)c1cn(C)c2ccc(-c3ccn4nc(NC(=O)CN5CCN(C(=O)C6CC6)CC5)nc4c3)cc12)c1ccc(F)cc1` [Compound 50], the EC50 is below 1 nM.

With `C[C@H](NC(=O)c1cn(C)c2ccc(-c3ccn4nc(NC(=O)CN5CCN(C)CC5)nc4c3)cc12)c1ccc(F)cc1` [Compound 51], the EC50 was below 1 nM.

Take `C[C@H](NC(=O)c1cn(C)c2ccc(-c3ccn4nc(NC(=O)Cn5ccnn5)nc4c3)cc12)c1ccc(F)cc1` [Compound 52]: the EC50 is below 1 nM.

As to `CC(=O)N1CCN(CC(=O)Nc2nc3cc(-c4ccc5c(c4)c(C(=O)N[C@@H](C)c4ccc(F)cc4)cn5C)ccn3n2)CC1` [Compound 53], the EC50 is below 1 nM.

In the case of `C[C@H](NC(=O)c1cn(C)c2ccc(-c3ccn4nc(NC(=O)Cn5cncn5)nc4c3)cc12)c1ccc(F)cc1` [Compound 57], the EC50 lay in the range of 10 to 100 nM.
